# Reference: PMC8041433 (Environmental Health Perspectives, 2021)
# Where “and” joins values, the source holds several entries; their conditions need not be identical. Equal entries are not always repeated. Where two headings read alike, the source gives them in different places.
# How the values were obtained:
# [1] = target: AChE in neural stem cell spheroids (Homo sapiens, UniProt P22303); assay: cell-based; details: for IC50: potency (IC50)
# recombinant human AChE [2] = target: T1, recombinant human AChE (Homo sapiens, UniProt P22303); assay: biochemical; details: potency (IC50), Enzyme with microsomes
# AChE in SH-SY5Y cells = AChE in SH-SY5Y cells (Homo sapiens, UniProt P22303); assay: cell-based
# recombinant human AChE [3] = target: T1, recombinant human AChE; assay: biochemical; type: biochemical; details: for AC50: AC50 (uM)
# recombinant human AChE [4] = target: T1, recombinant human AChE
# [5] = target: AChE in SH-SY5Y spheroids (Homo sapiens, UniProt P22303); assay: cell-based; details: potency (IC50)
# [6] = target: AChE in neural stem cells (Homo sapiens, UniProt P22303); assay: cell-based
# recombinant human AChE [7] = target: T1, recombinant human AChE; assay: biochemical
# recombinant human AChE [8] = target: T1, recombinant human AChE; assay: biochemical; remark: listed apart in the source
# [9] = Neural stem cell spheroid (24 h)
# [10] = Neural stem cell spheroid (48 h)
# [11] = potency (IC50), SH-SY5Y cells monolayer
# Wherever IR or R is given: key: Reversible (R); Irreversible (IR); ND, not detected in enzyme-based AChE inhibition assay from current study.
# Chain of AChE in SH-SY5Y cells (P22303 32-614): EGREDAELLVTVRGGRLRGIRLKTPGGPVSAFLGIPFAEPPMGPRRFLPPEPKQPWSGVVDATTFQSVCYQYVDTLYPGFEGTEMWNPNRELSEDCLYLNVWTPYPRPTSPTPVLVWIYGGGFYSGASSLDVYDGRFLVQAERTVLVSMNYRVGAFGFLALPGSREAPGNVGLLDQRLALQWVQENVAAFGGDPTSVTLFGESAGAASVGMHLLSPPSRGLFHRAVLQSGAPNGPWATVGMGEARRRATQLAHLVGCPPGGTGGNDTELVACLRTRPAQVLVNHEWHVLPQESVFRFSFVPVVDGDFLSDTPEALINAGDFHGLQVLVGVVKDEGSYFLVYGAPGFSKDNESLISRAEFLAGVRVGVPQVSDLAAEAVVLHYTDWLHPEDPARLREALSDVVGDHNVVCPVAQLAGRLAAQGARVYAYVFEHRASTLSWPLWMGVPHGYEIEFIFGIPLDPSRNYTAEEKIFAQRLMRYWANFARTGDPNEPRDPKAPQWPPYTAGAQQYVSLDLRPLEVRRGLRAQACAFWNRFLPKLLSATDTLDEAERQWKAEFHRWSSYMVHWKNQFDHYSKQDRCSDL
# Chain of AChE in neural stem cells (P22303 32-614): as above
# Chain of AChE in SH-SY5Y spheroids (P22303 32-614): as above
# Chain of AChE in neural stem cell spheroids (P22303 32-614): as above
# T1 sequence (P22303 32-614): as above
Structure (SMILES),"IC50 [1, 9] [µM]","IC50 [1, 10] [µM]",IC50 (recombinant human AChE [2]) [µM],CC-v2 (curve classes) (AChE in SH-SY5Y cells),IC50 (AChE in SH-SY5Y cells; IC50 (uM)),IC50 (AChE in SH-SY5Y cells; [11]) [µM],AC50 (recombinant human AChE [3]),CC-v2 (curve classes) (recombinant human AChE [4]),Efficacy (recombinant human AChE [4]),IC50 ([5]; SH-SY5Y spheroids (24 h)) [µM],IC50 ([5]; SH-SY5Y spheroids (48 h)) [µM],IC50 [6] [µM],CC-v2 (curve classes) (recombinant human AChE [7]),Efficacy (recombinant human AChE [7]),"IC50 (recombinant human AChE [7]; potency (IC50), Enzyme) [µM]",IC50 (recombinant human AChE [8]) [µM],IC50 (recombinant human AChE [7]; IC50 (uM)) [µM],IR or R (recombinant human AChE [3]),AC50 (recombinant human AChE [3]; activity_5),AC50 (recombinant human AChE [3]; activity_10),also measured
COP(=S)(Oc1cc(Cl)c(Br)cc1Cl)c1ccccc1 (centres unmarked) [Leptophos],36.5,69,2.31,-2.1,63.3 µM and 71 µM and 79.6 µM,28,31.4 µM and 62.7 µM (3×) and 39.5 µM and 35.2 µM and 55.9 µM,-1.1,-83.877,54.6,44.6,58.1,-3,-64.129,46.4,48 ± 3.13,–,–,–,–,–
CCOP(=S)(OCC)SCSc1ccc(Cl)cc1 [Carbophenothion],2.19,3.31,3.74,–,89.4 µM,–,19.3 µM and 17.2 µM and 21.7 µM,4,-18.784,28.1,19.6,2.96,-2.2,-28.575,–,–,89.4,–,–,–,"potency (IC50), SH-SY5Y cells monolayer (AChE in SH-SY5Y cells): Inactive; AChE inhibition (result in words) (recombinant human AChE [7]): did not show effects; potency (IC50), Enzyme (recombinant human AChE [7]): Inactive; potency (IC50), Enzyme-based assay with heat-inactivated microsomes (recombinant human AChE [8]): Inactive"
CNC(=O)O/N=C/C(C)(C)[S+](C)[O-] (centres unmarked) [Aldicarb sulfoxide],0.24 ± 0.03,0.27 ± 0.17,0.68 ± 0.09,-1.1,0.354 µM and 0.322 µM and 0.397 µM and 0.287 µM,0.67 ± 0.04,498 nM and 789 nM and 885 nM and 993 nM and 1.11 µM and 559 nM (2×) and 198 nM and 627 nM,-1.1,–,0.46 ± 0.08,0.56,0.34 ± 0.04,-1.1,–,0.41 ± 0.02,0.78 ± 0.22,–,–,–,–,fold more potent than aldicarb (recombinant human AChE [7]): 15 fold; IC50 (recombinant human AChE [7]; IC50): 0.61 µM
"O=c1[nH]c2ccc([S+]([O-])CCN3CCC(Cc4ccc(F)cc4)CC3)cc2o1 (centres unmarked) [Besonprodil, reference compound]",11.5 ± 3.7,–,15.8 ± 1.81,-1.1,6.33 µM,8.57 ± 1.17,14 µM (2×) and 9.93 µM (2×) and 15.7 µM (2×) and 7.03 µM,-2.1,-73.433,4.75 ± 3.24,7.44 ± 1.68,15.8 ± 1.81,-1.1,-92.894,7.92 ± 0.91,16.4 ± 1.11,–,R,–,–,"potency (IC50), Neural stem cell spheroid (48 h) [1]: Inactive"
CC/N=c1\cc2oc3cc(NCC)c(C)cc3c(-c3ccccc3C(=O)OCC)c-2cc1C [Rhodamine 6G],29.7,40.3,41.3,-1.1,8.94 µM and 6.31 µM and 7.1 µM and 7.07 µM and 7.96 µM and 8.91 µM,12.4,–,-2.2 and -2.1,–,15.8,9.25,30.5,-1.1,–,22.8,41.2 ± 2.79,–,R,39.5 µM and 35.2 µM and 28 µM,39.5 µM and 49.8 µM and 35.2 µM,AC50 (recombinant human AChE [3]; activity_60): 25 µM and 35.2 µM
CCN1CCC2(CC1)COc1cc3c(cc12)N(C(=O)c1ccc(-c2ccc(-c4nnc(C)o4)cc2C)cc1)CC3.Cl [SB236057A],–,4.03,66 ± 15.1,-2.1,29.3 µM and 23.2 µM,33.8 ± 2.29,–,4,0,27.8 ± 11.7,25.9 ± 2.98,42.6 ± 2.88,-2.1,-86.107,38.3 ± 6.89,67.8 ± 8.64,32.8,R,72.8 µM and 64.9 µM and 45.9 µM,51.5 µM and 91.6 µM,"potency (IC50), Neural stem cell spheroid (24 h) [1]: Inactive; AC50 (recombinant human AChE [3]; activity_60): 64.9 µM and 51.5 µM and 72.8 µM"
CNC(=O)Oc1cc(C)cc(C(C)C)c1 [Promecarb],0.93 ± 0.07,0.66,0.68 ± 0.11,-1.1,0.633 µM and 0.564 µM,0.88 ± 0.1,–,-1.1,-98.92,1.38 ± 1.23,0.68 ± 0.09,1.35 ± 0.18,-1.1,-99.272,0.48 ± 0.12,0.61 ± 0.08,–,R,1.98 µM and 1.25 µM,0.885 µM and 1.77 µM,AC50 (recombinant human AChE [3]; activity_60): 0.703 µM and 0.498 µM and 1.11 µM
"O=C(Nc1cccc(C2=NCCN2)c1)Nc1cccc(C2=NCCN2)c1 [Imidocarb dipropionate, reference compound]",19.4 ± 2.22,19.3,27.6 ± 5.16,-1.1,3.79 µM and 4.25 µM,5.07 ± 0.64,15.3 µM (2×) and 17.2 µM and 19.3 µM and 10.9 µM and 13.7 µM and 21.7 µM and 12.2 µM,4,0,6.56 ± 6.21,7.41 ± 0.48,19.3,-2.1,-76.607,18.5 ± 10.1,25.7 ± 5.81,10.7,R,–,–,–
CCOP(=S)(OCC)SCn1nnc2ccccc2c1=O [Azinphos-ethyl],2.23,4.36,2.14,-1.1,12.6 µM and 11.2 µM and 15.9 µM,10.9,49.8 µM (2×) and 55.9 µM (2×) and 70.3 µM and 39.5 µM and 44.4 µM,-1.1,-98.316,25.2,12,4.79,-2.1,-105.247,42.8,22.5 ± 4.21,–,–,–,–,–
Cc1cc(OC(=O)N(C)C)nn1C(=O)N(C)C [Dimetilan],1.53 ± 0.26,3.12 ± 1.72,9.97 ± 1.14,-1.1,7.1 µM,6.89 ± 3.77,49.8 µM (2×) and 31.4 µM and 19.8 µM (2×) and 55.9 µM and 12.5 µM and 5.59 µM and 14 µM,-2.1,-61.098,15.8 ± 16.9,7.03,4.45 ± 0.51,-1.1,-84.168,16 ± 3.66,11.6 ± 1.49,–,R,–,–,–
